Reference: PubChem BioAssay (NCI)
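Where inhibition never reached the appropriate level, the endpoint shown equals the highest concentration tested. Otherwise, values were interpolated linearly from a five-concentration, 48-hour dose response in 96-well plates. GI50 = concentration required for 50% inhibition of growth. The concentration for full growth arrest is given as TGI.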

Legend:
Assay in all cases: DTP human tumour cell line panel, 48 h
OVCAR-5 ovarian = tested on: OVCAR-5 ovarian
IGROV1 ovarian = tested on: IGROV1 ovarian
NCI-H460 lung = tested on: NCI-H460 lung
LOX IMVI melanoma = tested on: LOX IMVI melanoma
COLO 205 colon = tested on: COLO 205 colon
KM12 colon = tested on: KM12 colon
SN12C renal = tested on: SN12C renal
SK-MEL-28 melanoma = tested on: SK-MEL-28 melanoma
RXF 393 renal = tested on: RXF 393 renal
EKVX NSCLC = tested on: EKVX NSCLC
MDA-MB-468 breast = tested on: MDA-MB-468 breast
TK-10 renal = tested on: TK-10 renal
SF-268 CNS = tested on: SF-268 CNS
OVCAR-4 ovarian = tested on: OVCAR-4 ovarian
DU-145 prostate = tested on: DU-145 prostate
OVCAR-8 ovarian = tested on: OVCAR-8 ovarian
HCT-116 colon = tested on: HCT-116 colon
SK-OV-3 ovarian = tested on: SK-OV-3 ovarian
PC-3 prostate = tested on: PC-3 prostate
HT29 colon = tested on: HT29 colon
MCF7 breast = tested on: MCF7 breast
A549 NSCLC = tested on: A549 NSCLC
SK-MEL-2 melanoma = tested on: SK-MEL-2 melanoma
HS 578T breast = tested on: HS 578T breast
SR leukemia = tested on: SR leukemia
SW-620 colon = tested on: SW-620 colon
HCT-15 colon = tested on: HCT-15 colon
BT-549 breast = tested on: BT-549 breast
OVCAR-3 ovarian = tested on: OVCAR-3 ovarian
SNB-19 CNS = tested on: SNB-19 CNS
K-562 leukemia = tested on: K-562 leukemia
CAKI-1 renal = tested on: CAKI-1 renal
SNB-75 CNS = tested on: SNB-75 CNS
786-0 renal = tested on: 786-0 renal
UO-31 renal = tested on: UO-31 renal
UACC-257 melanoma = tested on: UACC-257 melanoma
HOP-62 NSCLC = tested on: HOP-62 NSCLC
HL-60(TB) leukemia = tested on: HL-60(TB) leukemia
SK-MEL-5 melanoma = tested on: SK-MEL-5 melanoma
U251 CNS = tested on: U251 CNS
A498 renal = tested on: A498 renal
SF-295 CNS = tested on: SF-295 CNS
MDA-MB-435 = tested on: MDA-MB-435
HCC-2998 colon = tested on: HCC-2998 colon
HOP-92 NSCLC = tested on: HOP-92 NSCLC
M14 melanoma = tested on: M14 melanoma
RPMI-8226 leukemia = tested on: RPMI-8226 leukemia
UACC-62 melanoma = tested on: UACC-62 melanoma
ACHN renal = tested on: ACHN renal
NCI-H23 lung = tested on: NCI-H23 lung
MOLT-4 leukemia = tested on: MOLT-4 leukemia
MALME-3M melanoma = tested on: MALME-3M melanoma
CCRF-CEM leukemia = tested on: CCRF-CEM leukemia
NCI-H522 lung = tested on: NCI-H522 lung
SF-539 CNS = tested on: SF-539 CNS
NCI-H226 lung = tested on: NCI-H226 lung
MDA-MB-231 breast = tested on: MDA-MB-231 breast
T-47D breast = tested on: T-47D breast

`Cc1cc(C2(c3cc(C)c(OCC(O)CNc4c(C)n(C)n(-c5ccccc5)c4=O)cc3C(C)C)OC(=O)c3ccccc32)c(C(C)C)cc1OCC(O)CNc1c(C)n(C)n(-c2ccccc2)c1=O` (stereo unspecified) showed a GI50 (OVCAR-5 ovarian) of 17.7 µM, a TGI (OVCAR-5 ovarian) of 56.3 µM and a GI50 (IGROV1 ovarian) of 29 µM. It also gave a TGI (IGROV1 ovarian) of over 100 µM, a GI50 (NCI-H460 lung) of 15.6 µM and a TGI (NCI-H460 lung) of 43.4 µM. The GI50 (LOX IMVI melanoma) was 14.4 µM, the TGI (LOX IMVI melanoma) was 30.3 µM and the GI50 (COLO 205 colon) was 17.9 µM. It also gave a TGI (COLO 205 colon) of 41.8 µM, a GI50 (KM12 colon) of 25.8 µM and a TGI (KM12 colon) of over 100 µM. It also gave a GI50 (SN12C renal) of 26.1 µM, a TGI (SN12C renal) of over 100 µM and a GI50 (SK-MEL-28 melanoma) of 23.2 µM. It also gave a TGI (SK-MEL-28 melanoma) of 92.9 µM, a GI50 (RXF 393 renal) of 5.2 µM and a TGI (RXF 393 renal) of 38 µM. The GI50 (EKVX NSCLC) was 14.7 µM, the TGI (EKVX NSCLC) was over 100 µM and the GI50 (MDA-MB-468 breast) was 12.1 µM. It also gave a TGI (MDA-MB-468 breast) of 44.5 µM, a GI50 (TK-10 renal) of 49.3 µM and a TGI (TK-10 renal) of over 100 µM. It also gave a GI50 (SF-268 CNS) of 18.1 µM, a TGI (SF-268 CNS) of over 100 µM and a GI50 (OVCAR-4 ovarian) of 27.2 µM. For the same compound, the TGI (OVCAR-4 ovarian) was over 100 µM, the GI50 (DU-145 prostate) was 34 µM and the TGI (DU-145 prostate) was over 100 µM. It also gave a GI50 (OVCAR-8 ovarian) of 27 µM, a TGI (OVCAR-8 ovarian) of over 100 µM and a GI50 (HCT-116 colon) of 16.9 µM. The TGI (HCT-116 colon) was 46.8 µM, the GI50 (SK-OV-3 ovarian) was 49.2 µM and the TGI (SK-OV-3 ovarian) was over 100 µM. The GI50 (PC-3 prostate) was 5.72 µM, the TGI (PC-3 prostate) was over 100 µM and the GI50 (HT29 colon) was 26.7 µM. The TGI (HT29 colon) was over 100 µM, the GI50 (MCF7 breast) was 14 µM and the TGI (MCF7 breast) was 39.6 µM. For the same compound, the GI50 (A549 NSCLC) was 23.1 µM, the TGI (A549 NSCLC) was over 100 µM and the GI50 (SK-MEL-2 melanoma) was 17.5 µM. It also gave a TGI (SK-MEL-2 melanoma) of 40.8 µM, a GI50 (HS 578T breast) of 14.2 µM and a TGI (HS 578T breast) of over 100 µM. For the same compound, the GI50 (SR leukemia) was 20.9 µM, the TGI (SR leukemia) was over 100 µM and the GI50 (SW-620 colon) was 28.2 µM. The TGI (SW-620 colon) was over 100 µM, the GI50 (HCT-15 colon) was 17.1 µM and the TGI (HCT-15 colon) was 67.9 µM. The GI50 (BT-549 breast) was 23.3 µM, the TGI (BT-549 breast) was over 100 µM and the GI50 (OVCAR-3 ovarian) was 19 µM. For the same compound, the TGI (OVCAR-3 ovarian) was 92.6 µM, the GI50 (SNB-19 CNS) was 23.5 µM and the TGI (SNB-19 CNS) was over 100 µM. It also gave a GI50 (K-562 leukemia) of 14.4 µM, a TGI (K-562 leukemia) of over 100 µM and a GI50 (CAKI-1 renal) of 4.11 µM. The TGI (CAKI-1 renal) was over 100 µM, the GI50 (SNB-75 CNS) was 20.3 µM and the TGI (SNB-75 CNS) was over 100 µM. It also gave a GI50 (786-0 renal) of 19.2 µM, a TGI (786-0 renal) of 76.5 µM and a GI50 (UO-31 renal) of 19.9 µM. The TGI (UO-31 renal) was over 100 µM, the GI50 (UACC-257 melanoma) was 24.1 µM and the TGI (UACC-257 melanoma) was over 100 µM. For the same compound, the GI50 (HOP-62 NSCLC) was 36.5 µM, the TGI (HOP-62 NSCLC) was over 100 µM and the GI50 (HL-60(TB) leukemia) was 14.2 µM. The TGI (HL-60(TB) leukemia) was 79.7 µM, the GI50 (SK-MEL-5 melanoma) was 13.2 µM and the TGI (SK-MEL-5 melanoma) was 26.7 µM. The GI50 (U251 CNS) was 25.9 µM, the TGI (U251 CNS) was 99.6 µM and the GI50 (A498 renal) was 29.1 µM. The TGI (A498 renal) was over 100 µM, the GI50 (SF-295 CNS) was 11.1 µM and the TGI (SF-295 CNS) was 32 µM. For the same compound, the GI50 (MDA-MB-435) was 14.7 µM, the TGI (MDA-MB-435) was 38.3 µM and the GI50 (HCC-2998 colon) was 17.1 µM. For the same compound, the TGI (HCC-2998 colon) was 49.6 µM, the GI50 (HOP-92 NSCLC) was 4.49 µM and the TGI (HOP-92 NSCLC) was 49.8 µM. For the same compound, the GI50 (M14 melanoma) was 17.8 µM, the TGI (M14 melanoma) was 44.7 µM and the GI50 (RPMI-8226 leukemia) was 13.9 µM. For the same compound, the TGI (RPMI-8226 leukemia) was 84.6 µM, the GI50 (UACC-62 melanoma) was 9.74 µM and the TGI (UACC-62 melanoma) was 24.4 µM. The GI50 (ACHN renal) was 23.6 µM, the TGI (ACHN renal) was over 100 µM and the GI50 (NCI-H23 lung) was 23.5 µM. It also gave a TGI (NCI-H23 lung) of over 100 µM, a GI50 (MOLT-4 leukemia) of 6.78 µM and a TGI (MOLT-4 leukemia) of over 100 µM. The GI50 (MALME-3M melanoma) was 20 µM, the TGI (MALME-3M melanoma) was 52.9 µM and the GI50 (CCRF-CEM leukemia) was 15.5 µM. For the same compound, the TGI (CCRF-CEM leukemia) was over 100 µM, the GI50 (NCI-H522 lung) was 26.9 µM and the TGI (NCI-H522 lung) was 94.1 µM. The GI50 (SF-539 CNS) was 18.6 µM, the TGI (SF-539 CNS) was 52.9 µM and the GI50 (NCI-H226 lung) was 15.7 µM. It also gave a TGI (NCI-H226 lung) of over 100 µM, a GI50 (MDA-MB-231 breast) of 10.1 µM and a TGI (MDA-MB-231 breast) of 27.2 µM. It also gave a GI50 (T-47D breast) of 18.5 µM and a TGI (T-47D breast) of over 100 µM.
